Values quoted from earlier work as cited in patent US9963464B2, “Macrocyclic compounds” (Bayer Pharma Aktiengesellschaft, priority 2014, dated 2018).

Test system: bronchospasms
Details: in vivo; cited from earlier work

Q: Which “protection against bronchospasms (duration)” value does the source give for `C[N+]1(C)[C@@H]2C[C@@H](OC(=O)C(O)(c3cccs3)c3cccs3)C[C@H]1[C@@H]1O[C@@H]12` [tiotropium] here?
A: more than 6 hours
